Assay results from ChEMBL document CHEMBL5252653, “Design, Synthesis, and Bioevaluation of Dexmedetomidine Prodrug” (ACS Med Chem Lett, 2023).

Experiments:
[1] = Toxicity in Sprague-Dawley rat assessed as survival rate at 2 times of EC50; settings: in vivo, read-out: Activity
[2] = Cardiotoxicity in Sprague-Dawley rat assessed as bradycardia at 20 to 80 microg/ml, iv administered as bolus dose by ECG analysis; format: toxicity, organism-based; settings: in vivo, at 20 to 80 µg/mL, dose 20-80 µg/ml
[3] = species: Rattus norvegicus; assay: Sedative activity in Sprague-Dawley rat assessed as onset time at 2 times of EC50; format: functional; settings: dose 10-110 µg/ml; route iv
[4] = Cardiotoxicity in Sprague-Dawley rat assessed as decrease in blood pressure at 20 to 80 microg/ml, iv administered as bolus dose by ECG analysis; format: toxicity, organism-based; design: scale not given: the % may be the effect or the level left; settings: in vivo, at 20 to 80 µg/mL, dose 20-80 µg/ml
[5] = system: Rattus norvegicus; assay: Sedative activity in Sprague-Dawley rat at 10 to 110 microg/ml, iv administered as bolus dose by dixon analysis; format: functional
[6] = Cardiotoxicity in Sprague-Dawley rat assessed as change in heart rate at 20 to 80 microg/ml, iv administered as bolus dose by ECG analysis; format: toxicity, organism-based; settings: in vivo, at 20 to 80 µg/mL, dose 20-80 µg/ml
[7] = system: Rattus norvegicus; assay: Sedative activity in Sprague-Dawley rat assessed as duration time at 2 times of EC50 administered as bolus dose; format: functional
[8] = Prodrug conversion in Sprague-Dawley rat assessed as dexmedetomidine release at 2 times of ED50; format: ADME; settings: in vivo
[9] = Prodrug conversion in Sprague-Dawley rat plasma assessed as dexmedetomidine release measured at 5 mins by HPLC analysis; format: ADME, cell-free
[10] = Cardiotoxicity in Sprague-Dawley rat assessed as decrease in blood pressure at 20 to 80 microg/ml, iv administered as bolus dose measured for 45 mins by ECG analysis; format: toxicity, organism-based; design: scale not given: the % may be the effect or the level left; settings: in vivo, 0.75 h, at 20 to 80 µg/mL, dose 20-80 µg/ml
[11] = Prodrug conversion in Sprague-Dawley rat plasma assessed as dexmedetomidine release measured at 30 mins by HPLC analysis; format: ADME, cell-free; settings: 0.5 h
[12] = Cardiotoxicity in Sprague-Dawley rat assessed as reduction in heart rate at 20 to 80 microg/ml, iv administered as bolus dose by ECG analysis; format: toxicity, organism-based; settings: in vivo, dose 20-80 µg/ml
[13] = Prodrug conversion in Sprague-Dawley rat plasma assessed as dexmedetomidine release measured at 1 hr by HPLC analysis; format: ADME, cell-free
[14] = Prodrug conversion in Sprague-Dawley rat plasma assessed as dexmedetomidine release measured at 2 mins by HPLC analysis; format: ADME, cell-free
[15] = Prodrug conversion in Sprague-Dawley rat plasma assessed as dexmedetomidine release measured at 15 mins by HPLC analysis; format: ADME, cell-free; settings: 0.25 h

Row | SMILES | survival [1] [%] | Activity [2] [%] | Time [3] [s] | Activity [4] [%] | ED50 [5] [mg/kg] | Activity [6] [%] | Time [7] [s] | Drug metabolism [8] [µg/kg] | Drug metabolism [9] | Activity [10] [%] | Drug metabolism [11] | Activity [12] | Drug metabolism [13] | Drug metabolism [14] | Drug metabolism [15]
1 | Cc1cccc([C@H](C)c2cnc[nH]2)c1C [DEXMEDETOMIDINE] | 100 | -41.07 | 87.8 | 43.55 | 0.0168 | -33.58 | 3312 | 28.38 | – | – | – | – | – | – | –
2 | Cc1cccc([C@H](C)c2cn(COC(=O)C(C)C)cn2)c1C.Cl | 100 | – | 63.9 | – | 0.0399 | – | 3798.6 | 47.44 | Metabolite_Detected | – | – | – | – | – | –
3 | CC(=O)OCn1cnc([C@@H](C)c2cccc(C)c2C)c1.Cl | 100 | – | 252.4 | – | 0.0321 | – | 2483.6 | 41.68 | – | 29.66 | – | – | – | – | –
4 | CC(=O)OC(C)n1cnc([C@@H](C)c2cccc(C)c2C)c1.Cl (stereo not given in full) | 100 | – | 117 | 14.67 | 0.0263 | – | 2274.1 | 32.61 | – | – | Metabolite_Detected | – | – | – | –
5 | Cc1cccc([C@H](C)c2cn(COC(=O)OC(C)C)cn2)c1C.Cl | 100 | – | 305.2 | – | 0.0311 | – | 2458.7 | 35.33 | – | – | – | – | – | – | –
6 | COC(=O)OCn1cnc([C@@H](C)c2cccc(C)c2C)c1.Cl | 100 | – | 259.6 | 16.35 | 0.0232 | – | 2017.2 | 28.68 | – | – | – | – | – | – | –
7 | COC(=O)COC(=O)OCn1cnc([C@@H](C)c2cccc(C)c2C)c1.Cl | 100 | – | 94.9 | – | 0.0487 | – | 3795.2 | 50.93 | – | 31.3 | – | Toxic | – | – | –
8 | CCC(=O)OC(C)n1cnc([C@@H](C)c2cccc(C)c2C)c1.Cl (stereo not given in full) | 100 | – | 159.8 | – | 0.035 | – | 2295.6 | 41.58 | – | 32.17 | Metabolite_Detected | Toxic | – | – | –
9 | COC(=O)CCC(=O)OCn1cnc([C@@H](C)c2cccc(C)c2C)c1.Cl | 100 | – | 78.9 | – | 0.0301 | – | 2733.9 | 31.71 | – | – | – | Toxic | Metabolite_Detected | – | –
10 | Cc1cccc([C@H](C)c2cn(COC(=O)OC3CCC3)cn2)c1C.Cl | 100 | – | 185 | 34.79 | 0.0268 | – | 3189.5 | 29.48 | Metabolite_Detected | – | – | Toxic | – | Metabolite_Detected | –
11 | CCC(=O)OCn1cnc([C@@H](C)c2cccc(C)c2C)c1.Cl | 100 | – | 184.4 | 34.92 | 0.0268 | – | 2325.8 | 33.32 | Metabolite_Detected | – | – | – | – | – | –
12 | CCOC(=O)CCC(=O)OCn1cnc([C@@H](C)c2cccc(C)c2C)c1.Cl | 100 | – | 116 | – | 0.0273 | – | 2484.1 | 27.67 | – | – | – | Toxic | Metabolite_Detected | – | –
13 | Cc1cccc([C@H](C)c2cn(COC(=O)c3ccccc3)cn2)c1C.Cl | 100 | – | 204.1 | – | 0.0595 | – | 4457.7 | 64.29 | – | – | Metabolite_Detected | Toxic | – | – | –
14 | CCCC(=O)OCn1cnc([C@@H](C)c2cccc(C)c2C)c1.Cl | 100 | – | 265 | 20.07 | 0.0211 | -29.92 | 1941.9 | 25.15 | Metabolite_Detected | – | – | Toxic | – | – | –
15 | COC(=O)n1cnc([C@@H](C)c2cccc(C)c2C)c1.Cl | 100 | – | 219.5 | 17.35 | 0.02 | – | 2018.2 | 25.77 | – | – | – | – | – | – | Metabolite_Detected
16 | Cc1cccc([C@H](C)c2cn(C(=O)OC(C)C)cn2)c1C.Cl | 100 | -22.88 | 239.3 | 22.4 | 0.0446 | -22.88 | 3984.1 | 55.39 | – | – | – | Toxic | – | – | Metabolite_Detected
17 | Cc1cccc([C@H](C)c2cn(COC(=O)C(C)(C)C)cn2)c1C.Cl | 100 | – | 157.9 | 14.57 | 0.0551 | -27.08 | 3091.8 | 62.94 | – | – | – | Toxic | – | – | –
18 | Cc1cccc([C@H](C)c2cn(C(=O)OCC(C)C)cn2)c1C.Cl | 100 | – | 151.9 | 34.65 | 0.0359 | – | 2802.9 | 42.7 | – | – | – | Toxic | – | – | –
19 | Cc1cccc([C@H](C)c2cn(COC(=O)OC3CC3)cn2)c1C.Cl | 100 | – | 92.1 | 37.25 | 0.0232 | – | 2795.7 | 26.53 | Metabolite_Detected | – | – | – | – | Metabolite_Detected | –
20 | Cc1cccc([C@H](C)c2cn(COC(=O)C3CC3)cn2)c1C.Cl | 100 | – | 195.2 | – | 0.0298 | – | 2410 | 35.67 | – | – | – | – | – | – | –
21 | Cc1cccc([C@H](C)c2cn(COC(=O)C3CCC3)cn2)c1C.Cl | 100 | – | 214.4 | – | 0.034 | – | 2841.2 | 39.02 | – | – | – | – | – | – | –
22 | CCOC(=O)COC(=O)OCn1cnc([C@@H](C)c2cccc(C)c2C)c1.Cl | 100 | – | 68.2 | – | 0.0468 | – | 3177.7 | 47.22 | – | 28.49 | – | Toxic | – | – | –
23 | Cc1cccc([C@H](C)c2cncn2COP(=O)([O-])[O-])c1C.[Na+].[Na+] | 100 | – | 206.5 | 15.15 | 0.0402 | – | 3966.6 | 45.5 | – | – | – | – | – | – | –
24 | CCOC(=O)OCn1cnc([C@@H](C)c2cccc(C)c2C)c1.Cl | 100 | -24.88 | 122.5 | – | 0.0292 | – | 2887.7 | 34.47 | – | – | – | Toxic | – | – | –
25 | CCCOC(=O)n1cnc([C@@H](C)c2cccc(C)c2C)c1 | 100 | – | 142.1 | 28.23 | 0.0255 | – | 2605.7 | 31.7 | – | – | – | – | – | – | –
26 | CCOC(=O)n1cnc([C@@H](C)c2cccc(C)c2C)c1.Cl | 100 | – | 289.1 | – | 0.0213 | – | 1971.4 | 27.61 | – | – | – | – | – | – | –
